Values of other authors, collected in patent publication US12440482B2, “1,4-dihydropyridine compositions, methods of making and use” (American Regent, Inc., priority 2019, dated 2025).

solubility in water: only slightly soluble
SMILES: COC(=O)C1=C(C)NC(C)=C(C(=O)OCCN(C)Cc2ccccc2)C1c1cccc([N+](=O)[O-])c1 (stereo not shown) [nicardipine]
